Numbered stars: 1 amine (or outer) side, 2 acyl side, 3 side chain; on linkers, the order of the positions; unused ones are H or OH. Bridge positions count the residues as written; N and C are the ends. Square brackets hold non-standard residues; d marks the D form. Peptide text beside a SMILES is read from it. tBuAla = CC(C)(C)C[C@H](N)C(=O)O; Suc = O=C(CCC(=O)[*:2])[*:1]; X1 = O=C(CCC[*:2])[*:1]; Dap = NC[C@H](N)C(=O)O; βAla = NCCC(=O)O; Mpa = O=C(O)CCS

The species named for test [1] is Homo sapiens. The test can be described thus: Selectivity ratio of EC50 for human V1a receptor to EC50 for human OTR.
The next test deals with T1, Oxytocin receptor (Homo sapiens, UniProt P30559).
T1 sequence (P30559 whole entry): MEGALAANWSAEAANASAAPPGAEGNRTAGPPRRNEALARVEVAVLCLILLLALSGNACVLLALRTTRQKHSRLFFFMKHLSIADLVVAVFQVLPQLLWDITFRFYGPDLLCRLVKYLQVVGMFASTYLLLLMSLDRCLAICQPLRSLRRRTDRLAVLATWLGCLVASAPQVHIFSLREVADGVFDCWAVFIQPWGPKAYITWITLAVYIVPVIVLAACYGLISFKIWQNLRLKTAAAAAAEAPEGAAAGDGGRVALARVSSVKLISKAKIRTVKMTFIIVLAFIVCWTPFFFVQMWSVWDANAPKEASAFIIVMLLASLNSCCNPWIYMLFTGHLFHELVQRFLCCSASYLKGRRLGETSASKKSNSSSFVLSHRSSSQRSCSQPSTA
The test is described as follows: Agonist activity at human OTR expressed in CHO cells assessed as calcium mobilization measured after 30 mins by Fluo-4-AM dye based FLIPR assay. In kind it is functional, cell-based. (Calcium assays in cells follow changes in intracellular calcium, usually with a dye or a luminescent sensor.)

In the next test the target is Vasopressin V1a receptor (Homo sapiens, UniProt P37288). The test can be described thus: Agonist activity at human V1a receptor expressed in CHO cells assessed as calcium mobilization measured after 30 mins by Fluo-4-AM dye based FLIPR assay. In kind it is cell-based.
Test [2] is filed under the species Homo sapiens. The test can be described thus: Selectivity ratio of EC50 for human V1b receptor to EC50 for human OTR.
A further test concerns the target T2, Vasopressin V1b receptor (Homo sapiens, UniProt P47901).
T2 sequence (P47901 whole entry): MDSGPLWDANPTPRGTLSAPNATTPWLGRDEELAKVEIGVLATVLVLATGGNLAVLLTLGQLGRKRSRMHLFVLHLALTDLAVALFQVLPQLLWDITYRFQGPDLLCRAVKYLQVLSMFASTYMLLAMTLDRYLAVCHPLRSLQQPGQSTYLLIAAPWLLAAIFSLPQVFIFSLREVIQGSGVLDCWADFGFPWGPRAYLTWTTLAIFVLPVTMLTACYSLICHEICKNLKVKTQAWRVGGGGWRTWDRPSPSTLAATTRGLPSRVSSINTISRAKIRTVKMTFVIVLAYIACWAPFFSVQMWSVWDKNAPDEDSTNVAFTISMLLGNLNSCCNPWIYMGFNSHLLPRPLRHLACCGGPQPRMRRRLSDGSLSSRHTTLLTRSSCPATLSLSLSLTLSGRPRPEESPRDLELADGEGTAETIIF
The test can be described thus: Agonist activity at human V1b receptor expressed in CHO cells assessed as calcium mobilization measured after 30 mins by Fluo-4-AM dye based FLIPR assay. In kind it is cell-based.

Sequence of Vasopressin V1a receptor (P37288 whole entry): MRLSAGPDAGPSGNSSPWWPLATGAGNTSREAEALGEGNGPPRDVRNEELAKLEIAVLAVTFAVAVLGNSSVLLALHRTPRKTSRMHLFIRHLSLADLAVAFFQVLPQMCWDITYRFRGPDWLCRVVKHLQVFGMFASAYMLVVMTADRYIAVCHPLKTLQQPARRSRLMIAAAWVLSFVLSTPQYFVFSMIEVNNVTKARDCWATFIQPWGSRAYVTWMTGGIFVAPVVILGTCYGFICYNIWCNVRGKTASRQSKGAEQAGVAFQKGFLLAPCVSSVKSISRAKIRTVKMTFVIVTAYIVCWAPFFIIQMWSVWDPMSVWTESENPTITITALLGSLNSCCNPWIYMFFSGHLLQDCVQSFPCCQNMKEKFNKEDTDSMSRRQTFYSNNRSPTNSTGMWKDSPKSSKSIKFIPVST

In the case of `CC[C@H](C)[C@@H]1NC(=O)[C@H](Cc2ccc(O)cc2)NC(=O)CCSSC[C@@H](C(=O)N2CCCCC2C(=O)N[C@@H](CC(C)C)C(=O)NCC(N)=O)NC(=O)[C@H](CC(N)=O)NC(=O)[C@H](CCC(N)=O)NC1=O` (stereo not given in full), the Ratio EC50 was more than 1000 in the test listed under Homo sapiens [1] and 310 in the test listed under Homo sapiens [2]. Besides, the EC50 at Oxytocin receptor was 0.013 nM; on Vasopressin V1a receptor it was more than 100 nM; at Vasopressin V1b receptor, 4 nM.
As for `CC[C@H](C)[C@@H]1NC(=O)[C@H](Cc2ccc(O)cc2)NC(=O)CCSSC[C@@H](C(=O)N2CCC[C@H]2C(=O)N[C@@H](Cc2ccccc2)C(=O)NCC(N)=O)NC(=O)[C@H](CC(N)=O)NC(=O)[C@H](CCC(N)=O)NC1=O` ([Mpa]YIQNCPFG-NH2; disulfide 1-6), the Ratio EC50 is more than 1000 in the test filed under Homo sapiens [1] and 44 in the test listed under Homo sapiens [2]. Besides, the EC50 was 0.054 nM on Oxytocin receptor, more than 100 nM at Vasopressin V1a receptor and 2.4 nM on Vasopressin V1b receptor.
For the molecule `CC[C@H](C)[C@@H]1NC(=O)[C@H](Cc2ccc(O)cc2)NC(=O)CCNC(=O)C[C@@H](C(=O)N2CCC[C@H]2C(=O)N[C@@H](CC(C)C)C(=O)NCC(N)=O)NC(=O)[C@H](CC(N)=O)NC(=O)[C@H](CCC(N)=O)NC1=O` ([βAla]YIQNDPLG-NH2; lactam N-6), the Ratio EC50 in the test listed under Homo sapiens [1] and in the test filed under Homo sapiens [2] was more than 7.7 throughout. Also, the figures for the EC50 on Oxytocin receptor, on Vasopressin V1a receptor and on Vasopressin V1b receptor were 13 nM, more than 100 nM and more than 100 nM, respectively.
Turning to `CC[C@H](C)[C@@H]1NC(=O)[C@H](Cc2ccc(O)cc2)NC(=O)CCCSC[C@@H](C(=O)N2CCC[C@H]2C(=O)N[C@@H](CC(C)(C)C)C(=O)NCC(N)=O)NC(=O)[C@H](CC(N)=O)NC(=O)[C@H](CCC(N)=O)NC1=O` (YIQNCP[tBuAla]G-NH2; linker N-5 via X1), the Ratio EC50 in the test listed under Homo sapiens [1] and in the test filed under Homo sapiens [2] was more than 10000 in each case. In addition, the values for the EC50 on Oxytocin receptor, on Vasopressin V1a receptor and on Vasopressin V1b receptor were 0.0065 nM, more than 100 nM and more than 100 nM, respectively.
`CC[C@H](C)[C@@H]1NC(=O)[C@H](Cc2ccc(O)cc2)NC(=O)CCSSC[C@@H](C(=O)N2CCC[C@H]2C(=O)N[C@@H](CCCNC(=N)N)C(=O)NCC(N)=O)NC(=O)[C@H](CC(N)=O)NC(=O)[C@H](CCC(N)=O)NC1=O` ([Mpa]YIQNCPRG-NH2; disulfide 1-6): the Ratio EC50 worked out at 4 in the test filed under Homo sapiens [1] and 1.1 in the test listed under Homo sapiens [2]. The EC50 was 0.03 nM on Oxytocin receptor, 0.12 nM at Vasopressin V1a receptor and 0.034 nM at Vasopressin V1b receptor.
As to `CC(C)C[C@H](NC(=O)[C@@H]1CCCN1C(=O)[C@@H]1CSSCCC(=O)N[C@@H](Cc2ccc(O)cc2)C(=O)N[C@@H](CO)C(=O)N[C@@H](CCC(N)=O)C(=O)N[C@@H](CC(N)=O)C(=O)N1)C(=O)NCC(N)=O` ([Mpa]YSQNCPLG-NH2; disulfide 1-6), the Ratio EC50 in the test listed under Homo sapiens [1] and in the test listed under Homo sapiens [2] was more than 2 throughout. For the same molecule, the EC50 at Oxytocin receptor was 40 nM; at Vasopressin V1a receptor, more than 100 nM; on Vasopressin V1b receptor, more than 100 nM.
As to `CC[C@H](C)[C@@H]1NC(=O)[C@H](Cc2ccc(O)cc2)NC(=O)CCC(=O)NC[C@@H](C(=O)N2CCC[C@H]2C(=O)N[C@@H](CC(C)(C)C)C(=O)NCC(N)=O)NC(=O)[C@H](CC(N)=O)NC(=O)[C@H](CCC(N)=O)NC1=O` (YIQN[Dap]P[tBuAla]G-NH2; linker N-5 via Suc), the Ratio EC50 in the test filed under Homo sapiens [1] and in the test listed under Homo sapiens [2] was more than 100 in each case. In addition, the EC50 on Oxytocin receptor was 0.26 nM; at Vasopressin V1a receptor, more than 100 nM; at Vasopressin V1b receptor it was more than 100 nM.
Consider `CC[C@H](C)[C@@H]1NC(=O)[C@H](Cc2ccc(O)cc2)NC(=O)CCSSC[C@@H](C(=O)N2CCC[C@H]2C(=O)N[C@@H](CCC(=O)O)C(=O)NCC(N)=O)NC(=O)[C@H](CC(N)=O)NC(=O)[C@H](CCC(N)=O)NC1=O` ([Mpa]YIQNCPEG-NH2; disulfide 1-6), for which the Ratio EC50 in the test listed under Homo sapiens [1] and in the test filed under Homo sapiens [2] was more than 100 each time. Besides, the EC50 on Oxytocin receptor is 0.25 nM; at Vasopressin V1a receptor it was more than 100 nM; at Vasopressin V1b receptor, more than 100 nM.
Take `CC(C)C[C@@H]1NC(=O)[C@H](Cc2ccc(O)cc2)NC(=O)CCSSC[C@@H](C(=O)N2CCC[C@H]2C(=O)N[C@@H](CC(C)C)C(=O)NCC(N)=O)NC(=O)[C@H](CC(N)=O)NC(=O)[C@H](CCC(N)=O)NC1=O` ([Mpa]YLQNCPLG-NH2; disulfide 1-6): the Ratio EC50 is more than 100 in the test listed under Homo sapiens [1] and 21 in the test listed under Homo sapiens [2]. For the same molecule, the figures for the EC50 at Oxytocin receptor, on Vasopressin V1a receptor and at Vasopressin V1b receptor were 0.19 nM, more than 100 nM and 3.9 nM, respectively.
For `CC[C@H](C)[C@@H]1NC(=O)[C@H](Cc2ccc(O)cc2)NC(=O)CCSSC[C@@H](C(=O)N2CCC[C@H]2C(=O)N[C@@H](CC(C)C)C(=O)NCC(N)=O)NC(=O)[C@H](CC(N)=O)NC(=O)[C@H](Cc2ccccc2)NC1=O` ([Mpa]YIFNCPLG-NH2; disulfide 1-6), the Ratio EC50 in the test listed under Homo sapiens [1] and in the test listed under Homo sapiens [2] was more than 4 throughout. For the same molecule, the values for the concentration giving a half-maximal response (EC50) at Oxytocin receptor, at Vasopressin V1a receptor and at Vasopressin V1b receptor were 22 nM, more than 100 nM and more than 100 nM, respectively.

As a reminder, the EC50 is the concentration needed to bring the measured effect to its halfway point.

The values are drawn from ChEMBL document CHEMBL4017483, “Potent and selective oxytocin receptor agonists without disulfide bridges” (Bioorg Med Chem Lett, 2017).
